Entries after “also recorded” stand apart in the source; their conditions may differ.
Key:
[1] = tested on: mouse model of pulmonary sarcoidosis; assay: Mouse model of pulmonary sarcoidosis, lung inflammation grading (Example 1); type: in vivo, C57B1/6 mice; details: sarcoidosis mice, treated two weeks, vs saline-treated sarcoidosis group; MIA-602 5 μg/day intraperitoneal; FIGS. 1A-E
Experimental: Granulomatous reaction in the mouse lung was developed as previously described (Zhang et al., Front Immunol 2019; 10: 2888).
(§1) The detail of the methodology used for confocal microscopy is discussed in Zhang et al., Front Immunol 2019; 10: 2888. To summarize, mice were killed on day 14, and the left lungs were harvested. Lungs were filled with 10% buffered formalin and fixed in formalin for at least 72 h before IHC staining. H&E staining was used to determine inflammatory pathology.
(§2) Lung inflammation was scored using the three fields with the highest infiltrate's intensity at 100× power magnification as previously described (Zhang et al., Front Immunol 2019; 10: 2888). The area of inflammation was measured and averaged for the three examined high-power fields.
A mouse model of pulmonary sarcoidosis was established in C57B1/6 mice by administering microparticles intratracheally. The tongue was pulled out with a small spatula and microparticles were inserted into the trachea using a 20 G angio-catheter tube at the time of laryngeal opening and advanced to main bronchus until reach to resistant. After tube placement, microparticles were administered: a first dose of 5×10^8 CFU of M. abscessus in 50 μL with three subsequent doses of 2×10^8 CFU of M. abscessus in 20 μL. A control group received only 20 μL PBS intratracheally. Mice receiving microparticles developed noncaseating granuloma in the lung, as observed use H&E staining and immunohistochemistry staining for CD68 macrophage marker, CD4 marker, and PD-L1.
The first sarcoidosis group received MIA-602 (5 μg/day), administered via intraperitoneal injection. The second sarcoidosis group received α-melanocyte stimulating hormone (α-MSH), the third sarcoidosis group received steroid treatment (methyl-prednisone, the current first line treatment for sarcoidosis), and the fourth group received only saline. Mice were sacrificed after two weeks, and inflammation in lung samples was graded.

[2] = tested on: granuloma (PBMC challenged with microparticles); assay: Cytokine production in in vitro granuloma from PBMC of sarcoidosis subjects, multiplex ELISA (Example 2); type: cell-based, human; details: 1 microM MIA-602, 48 h, media
Experimental: In vitro granuloma was developed by challenging PBMC with microparticles as previously described (Zhang et al., Sci Rep 2020; 10: 7277).
To measure cytokines in media, supernatant aliquot samples were analyzed, thawed, and spun at 12,000 rpm for 10 min to separate the particulate material at the bottom. Fifty μl of undiluted media was plated from each sample onto a 96-well V-bottom plate (source plate) by manual pipetting according to predefined maps. The aliquots were wrapped in parafilm and kept in a humid chamber at 4° C. during the entire process, but not longer than 72 hr. Growth factors and their receptor's capture antibodies were reconstituted and diluted per manufacturer specification and 50 μl plated into each well of respective 96-well high-binding half-well plates, which were then sealed and incubated overnight at 4° C. The cytokine levels were measured using a procartaplex human th1/th2 cytokine panel 11 plex from Invitrogen, (epx110-10810-901).
Granuloma and PBMC were collected from five sarcoidosis subjects. The samples were grouped as control (not challenged), granuloma group challenged with a 10:1 treatment with microparticles but left untreated, challenged granuloma group treated with 1 microM MIA-602 in vitro, and challenged granuloma group treated with methyl prednisolone in vitro. Media were removed 48 h after of treatments. Cytokines were measured using an multiplex ELISA instrument.

[3] = tested on: mouse pulmonary granulomatous model; assay: Mouse pulmonary granulomatous model, H&E and IHC scoring of lung (Example 4); type: in vivo, C57B1/6 mice
Experimental: as §1
(§3) For immunohistochemistry, 5-μm paraffin sections were processed by deparaffinization and rehydration followed by endogenous peroxidase blocking (1% H2O2 in methanol for 20 minutes) and antigen retrieval (boiled in 10 mM citrate buffer for 30 minutes). Tissue sections were blocked with 2% goat or horse serum (Vector Laboratories) and incubated with antibody CD68 (Proteintech, Cat #25747-1-AP), PD-1 (Cell Signaling, cat #84651), PD-L1 (Proteintech, Cat #17952-1-AP), CD30 (Lsbio, cat #LS-c162069) CD3 (Cell Signaling, cat #99940), iNOS (Invitrogen, cat #PAI-036), or Nitrotyrosine (Novus, NBP2-54606) over night at 4° C., washed with TBST five times, then exposed to secondary antibodies (Vector Laboratories, cat #PI-2000). Immunoreactivity was detected using the ABC Elite kit (Vector Laboratories). DAB was used as final chromogen and hematoxylin as the nuclear counterstain. Negative controls for all antibodies were made by replacing the primary antibody with non-immunogen IgG.
as §2
A mouse pulmonary granulomatous model was established for studying type I IFN pathways after exposure to M. abscessus cell wall. The model is applicable for pulmonary sarcoidosis studies due to its characteristics of noninfectious lung granulomatous model. C57B1/6 mice were used to develop the model (Zhang et al., Front Immunol 2019; 10: 2888).
Mice were treated with 5 μg of a peptide of the disclosure, MIA-602, per day via intraperitoneal injection. After two weeks, the mice were sacrificed, and lung inflammation was graded by a lung pathologist. Lung samples were stained with H&E, CD68, PD1, PD-L1, and CD30, and scored based on percentage of cells expressing each marker.

[4] = tested on: in vitro granuloma model (PBMCs challenged with microparticles); assay: Pro- and anti-apoptotic protein levels in in vitro granuloma model (Example 3); type: cell-based, human; details: 1 μM MIA-602, 48 h
Experimental: In vitro granuloma was developed by challenging PBMC with microparticles as previously described (Zhang et al., Sci Rep 2020; 10: 7277). (Zhang et al., Sci Rep 2020; 10: 7277), PBMCs were lysed in lysis buffer (Cell Signaling Technology, Beverly, MA) with protease inhibitor cocktail (Cell Signaling Technology, Beverly, MA) and sonicated three times for 2 seconds each with at least 1-min rest on ice between each 2-s pulse. Samples were centrifuged at 10,000×g for 5 min at 4° C. and the supernatant was collected. Protein concentration was determined by BCA protein assay kit from Cell Signaling Technology. The methodology is further described in .Zhang et al., Sci Rep 2020; 10: 7277. Thirty micrograms of total protein were mixed in a reducing sample buffer and used for mitochondrial apoptosis assay per the kit instruction. The assay was performed using a Bio-Rad kit (171-WAR3CK). The ability of a peptide of the disclosure, MIA-602, to influence respiration and apoptosis in granuloma cells was examined. The specific processes of apoptosis and mitochondrial dynamics in granuloma have not been fully elucidated. To test if MIA-602 had pro- or anti-apoptotic effects, the protein levels of pro-(active caspase-3) and anti-apoptotic factors (survivin, Bcl-xL/Bak dimer, and Mcl-1/Bak dimer) were measured in an in vitro granuloma model. […] Media were removed 48 h after treatment.

[5] = tested on: sarcoidosis mice model; assay: NOS2 and nitrotyrosine staining of lung in sarcoidosis mice model (Example 6); type: in vivo; details: daily intraperitoneal MIA-602 5 μg, lung harvested after three weeks
Experimental: as §3
Inducible nitric oxide synthases (iNOS) produces nitric oxide and has a crucial role in granuloma development. iNOS is expressed in macrophages after exposure to bacterial lipopolysaccharides and IFNγ (Facchetti et al., Am J Pathol 1999; 154: 145-152). […] Lung tissue was harvested after three weeks and tissue stained with NOS2 and nitrotyrosine. […] The finding was not statistically significant.

[6] = tested on: sarcoidosis mice model; assay: Flow cytometry of lung single cells in sarcoidosis mice model (Example 5); type: in vivo; details: MIA-602 5 μg, two weeks
Experimental: Mice were sacrificed on day 14, and the left lungs were harvested for pathology after perfusing the right ventricle with 10 ml of PBS.
The upper half of left lung tissue (without trachea, main bronchus and branches) was removed and rinsed by PBS to clean off blood. The tissue was minced and dispersed with a scissors to increase total surface area. To develop single cell suspension, the rubber end of a 5 ml plastic syringe was used to mesh cells through a 100 μm cell strainer with continuous rinse using ice-cold RPMI 1640. Cell suspension was again meshed through a 70 μm cell strainer and rinsed thoroughly with 3 ml of washing buffer containing DNAse followed by 15 ml of DNAse-free washing buffer. The sample was centrifuged at 286×g and 18° C. for 5 min, and the supernatant was discarded (Posel et al. J Vis Exp 2016: 53658).
The cells (10^6 cells/ml) were resuspended in 100 μl protein blocking solution with 5 μl fluorescent conjugated antibodies, CD8 (Biolegend Cat #100714, CD45 (Biolegend Cat #103130), CD68 (Biolegend Cat #137004), PD-1 (Biolegend Cat #135219), PD-L1 (Biolegend Cat #124308), CD4 (Biolegend Cat #100510), CD11b (Biolegend Cat #101243), CD11c (Biolegend Cat #117318), F4/80 (Biolegend Cat #123146), or IFNg (Biolegend Cat #505836). Samples were analyzed on a BD LSR II flow cytometer using BD FACSDiva software, and data analysis was performed using Flowjo software (TreeStar, Ashland, OR). Cell populations were identified using sequential gating strategy; the expression of activation markers was presented as median fluorescence intensity. Lung immune cells were classified based on FC marker expression as previously described (Misharin et al., Am J Respir Cell Mol Biol 2013; 49: 503-510).
Mice were grouped as control, challenged with microparticles and treated with saline, challenged and treated with MIA-602 (5 μg), and challenged and treated with methyl prednisolone (100 μg). After two weeks, lungs were harvested from all groups, and lung single cells were generated for flow cytometry analysis.

[7] = tested on: sarcoidosis mice model; assay: RNASeq transcriptomics of lung in sarcoidosis mice model (Example 7); type: in vivo; details: granuloma mice, daily MIA-602 5 μg intraperitoneal vs saline
Experimental: RNA from mouse lungs were extracted using RNA Miniprep Plus Kit (Zymo Research). Briefly, whole lung was homogenized in TRI reagent and total RNA extraction was performed following the instructions provided by the manufacturer with additional DNase treatment. Quantity and quality of the samples were determined by NanoDrop spectrophotometer and Agilent Bioanalyzer 2100, respectively (Zhang et al., Front Immunol 2019; 10: 2888).
Preparation and sequencing of RNA libraries was performed. Briefly, total RNA quantity and quality were determined using the Agilent Bioanalyzer. At least 300 ng of total RNA was used as input for the KAPA RNA HyperPrep Kit with RiboErase (HMR) according to manufacturer's protocol to create ribosomal RNA-depleted sequencing libraries. Sequencing was performed on the Illumina NextSeq 500, generating ˜40 million single-end 75 base reads per sample. Sequencing data were processed with a bioinformatics pipeline including quality control, alignment to the […], and gene quantification. Count data was inputted into edgeR software for differential expression analysis. Counts were normalized using the trimmed mean of M-values (TMM) method to account for compositional difference between the libraries and paired differential expression analysis using a generalized linear model with sample as a blocking factor. […]

**Q.** For C[C@H]1C[C@@H]2[C@H]([C@@H](O)C[C@@]3(C)[C@H]2CC[C@]3(O)C(=O)COC(=O)CCC(=O)[O-])[C@@]2(C)C=CC(=O)C=C12.[Na+] [methyl-prednisone], which “inflammation in lung samples (inflammation score)” value (shortened to “inflammation in lung samples”) [1] is on record?
**A.** did not affect inflammation

**Q.** How did the “cytokine production of CCL2” value [2] turn out when “[PhAc-Ada^0-Tyr^1, D-Arg^2, Fpa5^6, Ala^8, Har^9, Tyr(Me)^10, His^11, Orn^12, Abu^15, His^20, Orn^21, Nle^27, D-Arg^28, Har^29]hGH-RH(1-29)NH2 [MIA-602]” was run?
**A.** significantly reduced

**Q.** What about the “cytokine production of CCL5” value [2] of the same compound?
**A.** significantly reduced

**Q.** And the “cytokine production of CXCL9” value [2]?
**A.** significantly reduced

**Q.** And the “cytokine production of IFNα” value [2]?
**A.** significantly reduced

**Q.** What about the “cytokine production of IL2” value [2] of the same compound?
**A.** significantly reduced

**Q.** What about the “cytokine production of IL7” value [2] of the same compound?
**A.** significantly reduced

**Q.** What about the “cytokine production of IL10” value [2] of the same compound?
**A.** significantly reduced

**Q.** What about the “cytokine production of IL12” value [2] of the same compound?
**A.** significantly reduced

**Q.** And the “cytokine production of IL15” value [2]?
**A.** significantly reduced

**Q.** What about the “cytokine production of IL17A” value [2] of the same compound?
**A.** significantly reduced

**Q.** And the lung inflammation score ([3]; 5 μg MIA-602 per day intraperitoneal, two weeks, vs granuloma group, H&E)?
**A.** lower inflammation scores; also recorded: almost normalized

**Q.** What about the “CD30 cells in lung” value ([3]; 5 μg MIA-602 per day intraperitoneal, two weeks, IHC) of the same compound?
**A.** nonsignificantly reduced

**Q.** And the “percentage of CD68+ cells in the lung” value ([3]; 5 μg MIA-602 per day intraperitoneal, two weeks, IHC, changes not statistically significant)?
**A.** decreased

**Q.** What about the “PD-1+ cells in the lung” value ([3]; 5 μg MIA-602 per day intraperitoneal, two weeks, IHC, same pattern as CD68+ (increased in granuloma, decreased with MIA-602, not significant)) of the same compound?
**A.** This pattern was seen

**Q.** What about the “inflammatory cell numbers in lung tissue” value ([3]; summary of animal model study) of the same compound?
**A.** reduced inflammatory cell numbers significantly

**Q.** What about the survivin levels ([4]; FIG. 3A) of the same compound?
**A.** no statistical difference between groups

**Q.** What about the “active caspase 3 level” value ([4]; FIG. 3D) of the same compound?
**A.** further increased

**Q.** And the “level of Mcl-1/Bak dimer” value ([4]; reduced in untreated granuloma, FIG. 3B)?
**A.** restored

**Q.** What about the “BclxL/Bak Dimer levels” value ([4]; vs granuloma treated with saline, FIG. 3C) of the same compound?
**A.** increased

**Q.** And the “inflammation in lung samples” value [1]?
**A.** lower inflammation scores

**Q.** What about the NOS2 expression ([5]; FIG. 7) of the same compound?
**A.** reduced following MIA-602 treatment. The finding was not statistically significant

**Q.** And the nitrotyrosine levels ([5]; FIG. 8)?
**A.** reduced the nitrotyrosine levels, but the reduction was not statistically significant

**Q.** And the “population of CD45+CD68 cells” value ([6]; FIG. 6A)?
**A.** significantly reduced

**Q.** What about the “percentage of CD45+CD68+ cells that expressed PD-1” value ([6]; FIG. 6B) of the same compound?
**A.** significantly increased

**Q.** And the “population of CD45+CD68+PD-L1 cells” value ([6]; FIG. 6C)?
**A.** a higher percentage was detected

**Q.** What about the genes downregulated [7] of the same compound?
**A.** 293 genes

**Q.** And the genes upregulated [7]?
**A.** 778 genes

**Q.** Which “inflammation in lung samples” value [1] does the source give for “α-melanocyte stimulating hormone [a-MSH]” here?
**A.** lower inflammation scores

Source: patent US20250332223A1, “GHRH ANTAGONISTS FOR USE IN A METHOD OF TREATING SARCOIDOSIS” (University of Miami, priority 2019, published 2025)
